Experimental findings from ChEMBL document CHEMBL1933028, “Discovery of cyclic amine-substituted benzoic acids as PPARα agonists” (Bioorg Med Chem Lett, 2012) are described below.

Data set [1] concerns the target T1, Peroxisome proliferator-activated receptor gamma (Mus musculus, UniProt P37238).
T1 sequence (P37238 whole entry): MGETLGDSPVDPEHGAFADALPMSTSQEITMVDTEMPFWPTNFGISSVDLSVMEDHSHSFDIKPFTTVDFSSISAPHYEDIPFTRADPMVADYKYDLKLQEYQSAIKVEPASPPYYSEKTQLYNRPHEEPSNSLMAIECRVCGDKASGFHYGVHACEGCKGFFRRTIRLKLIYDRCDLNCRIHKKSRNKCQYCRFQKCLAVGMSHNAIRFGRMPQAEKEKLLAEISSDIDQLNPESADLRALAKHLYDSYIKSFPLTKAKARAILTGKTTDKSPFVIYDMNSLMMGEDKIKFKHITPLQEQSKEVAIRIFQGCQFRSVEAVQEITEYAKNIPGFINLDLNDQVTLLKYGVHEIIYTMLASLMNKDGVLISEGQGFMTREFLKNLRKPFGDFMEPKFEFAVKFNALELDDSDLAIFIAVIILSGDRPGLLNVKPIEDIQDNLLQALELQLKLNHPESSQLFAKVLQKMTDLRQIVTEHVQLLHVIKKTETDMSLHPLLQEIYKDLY
Description: Agonist activity at mouse PPARgamma. In kind it is functional.

The nature of data set [2]: Oral bioavailability in rat at 1 mg/kg. It counts as ADME, organism-based. The note with it: in vivo.
Data set [3] has as its target T2, Peroxisome proliferator-activated receptor gamma (Canis lupus familiaris, UniProt Q4U3Q4).
T2 sequence (Q4U3Q4 whole entry): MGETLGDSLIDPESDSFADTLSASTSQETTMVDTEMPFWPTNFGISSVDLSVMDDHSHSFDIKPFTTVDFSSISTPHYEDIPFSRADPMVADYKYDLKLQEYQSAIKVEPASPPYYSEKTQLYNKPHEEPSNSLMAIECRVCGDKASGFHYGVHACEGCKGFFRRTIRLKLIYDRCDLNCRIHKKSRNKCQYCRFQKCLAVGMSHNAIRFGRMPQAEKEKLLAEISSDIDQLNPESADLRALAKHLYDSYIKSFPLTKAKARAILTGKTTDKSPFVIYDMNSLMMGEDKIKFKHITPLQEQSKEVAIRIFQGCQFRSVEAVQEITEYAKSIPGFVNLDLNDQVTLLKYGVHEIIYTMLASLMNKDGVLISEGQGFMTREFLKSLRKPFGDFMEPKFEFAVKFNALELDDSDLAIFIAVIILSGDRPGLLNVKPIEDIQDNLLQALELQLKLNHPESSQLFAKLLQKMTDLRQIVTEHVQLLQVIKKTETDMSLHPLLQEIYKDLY
Description: Agonist activity at dog PPARgamma. It counts as functional.

Data set [4] in a line: Agonist activity at hamster PPARalpha. It counts as functional, Cricetinae.
Data set [5] in a line: Agonist activity at hamster PPARgamma. In kind it is functional, Cricetinae.
The test system of another data set is Rattus norvegicus. Description: Volume of distribution at steady state in rat at 1 mg/kg, po. In kind it is ADME, organism-based. The arrangement: dose 1 mg/kg, route oral. The note with it: in vivo.
For data set [6], the system named is Canis familiaris. Description: Antidyslipidemic activity in high-fat diet fed dog assessed as decrease in non-HDL cholesterol at 0.01 mg/kg, po administered QD for 1 week (reference value: 75 +/- 5 mg/dL). In kind it is functional, Canis lupus familiaris.
For data set [7], the target named is T3, Peroxisome proliferator-activated receptor delta (Canis lupus familiaris, UniProt Q0ZAQ8).
T3 sequence (Q0ZAQ8 whole entry): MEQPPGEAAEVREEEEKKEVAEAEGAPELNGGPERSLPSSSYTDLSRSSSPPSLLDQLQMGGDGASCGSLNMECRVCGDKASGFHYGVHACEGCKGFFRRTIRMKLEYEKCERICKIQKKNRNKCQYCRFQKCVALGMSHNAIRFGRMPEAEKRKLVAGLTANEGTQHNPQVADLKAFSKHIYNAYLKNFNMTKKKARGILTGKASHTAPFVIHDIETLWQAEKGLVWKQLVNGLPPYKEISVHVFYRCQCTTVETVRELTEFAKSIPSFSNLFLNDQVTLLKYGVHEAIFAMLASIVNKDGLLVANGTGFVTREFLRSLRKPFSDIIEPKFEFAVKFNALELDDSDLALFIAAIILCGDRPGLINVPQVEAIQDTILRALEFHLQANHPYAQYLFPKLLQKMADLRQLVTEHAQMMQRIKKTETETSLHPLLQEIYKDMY
In words: Agonist activity at dog PPARdelta. In kind it is functional.

For data set [8], the system named is Canis familiaris. In words: Toxicity in high-fat diet fed dog assessed as change in body weight at 0.003 mg/kg, po administered QD for 1 week (reference value: 14.8 +/- 0.7 kg). It counts as organism-based, Canis lupus familiaris. More on the design: dose 0.003 mg/kg, route oral. Conditions: in vivo, 168 h.
Data set [9] concerns Canis familiaris. Description: Toxicity in high-fat diet fed dog assessed as change in body weight at 0.03 mg/kg, po administered QD for 1 week (reference value: 14.8 +/- 0.7 kg). In kind it is organism-based, Canis lupus familiaris. The arrangement: dose 0.03 mg/kg, route oral. The note with it: in vivo, 168 h.
Data set [10] deals with Canis familiaris. Description: Antidyslipidemic activity in high-fat diet fed dog assessed as decrease in total cholesterol at 0.03 mg/kg, po administered QD for 1 week (reference value: 205 +/- 6 mg/dL). In kind it is functional, Canis lupus familiaris.
For data set [11], the system named is Canis familiaris. In words: Toxicity in high-fat diet fed dog assessed as effect on food intake at 0.01 mg/kg, po administered QD for 1 week (reference value: 3.67+/-0.09 kg). Conditions: in vivo, 168 h. The arrangement: dose 0.01 mg/kg, route oral. In kind it is organism-based, Canis lupus familiaris.
The subject of data set [12] is Canis familiaris. In words: Antidyslipidemic activity in high-fat diet fed dog assessed as decrease in non-HDL cholesterol at 0.003 mg/kg, po administered QD for 1 week (reference value: 75 +/- 5 mg/dL). It counts as functional, Canis lupus familiaris.
Data set [13] is described as follows: Cmax in dog at 0.3 mg/kg, po. In kind it is ADME, organism-based, Canis lupus familiaris. The arrangement: dose 0.3 mg/kg, route oral. Conditions: in vivo.
Data set [14] in a line: Oral bioavailability in dog at 0.3 mg/kg. Conditions: in vivo. It counts as ADME, organism-based, Canis lupus familiaris.
Data set [15] relates to Canis familiaris. In words: Antidyslipidemic activity in high-fat diet fed dog assessed as decrease in serum triglyceride level at 0.01 mg/kg, po administered QD for 1 week (reference value: 98 +/- 4 mg/dL). It counts as functional, Canis lupus familiaris.
For data set [16], the system named is Canis familiaris. In words: Antidyslipidemic activity in high-fat diet fed dog assessed as decrease in free fatty acid at 0.03 mg/kg, po administered QD for 1 week (reference value: 0.624 +/- 0.057 mEq/L). In kind it is functional, Canis lupus familiaris.
The nature of data set [17]: Half life in rat at 1 mg/kg, po. It counts as ADME, organism-based. More on the design: dose 1 mg/kg, route oral. The note with it: in vivo.
Data set [18] concerns Canis familiaris. Description: Antidyslipidemic activity in high-fat diet fed dog assessed as decrease in serum triglyceride level at 0.03 mg/kg, po administered QD for 1 week (reference value: 98 +/- 4 mg/dL). In kind it is functional, Canis lupus familiaris.
Data set [19] has as its system Canis familiaris. In words: Toxicity in high-fat diet fed dog assessed as change in body weight at 0.01 mg/kg, po administered QD for 1 week (reference value: 14.8 +/- 0.7 kg). The note with it: in vivo, 168 h. More on the design: dose 0.01 mg/kg, route oral. It counts as organism-based, Canis lupus familiaris.
Data set [20] in a line: Agonist activity at rat PPARdelta. In kind it is functional.

What is called EC50 is the concentration giving half of the maximal effect. A higher EC50 goes with weaker potency. By bioavailability is commonly meant dose-corrected exposure relative to a reference, in per cent. Low values mean poor availability, high ones good availability. A word on the Cmax: it is the peak of the concentration-time curve. As usually defined, the half-life is the time needed for the level to fall by half in the phase considered. In the case of `Cc1nc(-c2ccc(Cl)cc2)sc1C(=O)N[C@H]1CCCN(c2cccc(C(=O)O)c2)C1`, the EC50 in data set [1] was 12 µM; in data set [3] it was 11 µM; in [4], 0.61 µM; in [5], > 15 µM; in data set [7] it was 2.7 µM; in [20] it was > 14 µM. Further, the results for the bioavailability in [2] and in data set [14] were 47.6% and 73.1%, respectively. Besides, in the data set with Rattus norvegicus, the Vdss amounted to 0.832 L/kg. The Activity with Canis familiaris [6] is 50 mg/dL; in the data set with Canis familiaris [8], 15.3 kg; in the data set on Canis familiaris [9], 14.8 kg; in the data set with Canis familiaris [10] it was 169 mg/dL; in the data set on Canis familiaris [11] it was 3.91 kg; in the data set on Canis familiaris [12] it was 65 mg/dL. The Activity is 48 mg/dL in the data set with Canis familiaris [15], 0.576 mEq/L with Canis familiaris [16], 44 mg/dL in the data set with Canis familiaris [18] and 14.8 kg in the data set with Canis familiaris [19]. Besides, the peak level in [13] (Cmax) was 0.295 µg/mL. Also, in [17], the half-life was 10 h.
